Data set [1] in a line: Retardation factor of the compound. It is filed as physicochemical.
Data set [2] is described as follows: Octanol/water partition coefficient, log P of the compound by shake flask method. The class given is physicochemical.
A short description of data set [3]: In-vitro anti-inflammatory activity assessed as inhibition of denaturation of bovine serum albumin at equimolar dose relative to 10 mg indomethacin. The class given is functional.
Data set [4] has as its system Mus musculus. The data set can be described thus: Analgesic activity in Swiss albino mouse assessed as reduction in formalin-induced paw licking by measuring time spent on licking during phase-1 at 10 mg/kg, po dosed 1 hr before formalin challenge and measured 30 mins after formalin injection. It is filed as functional.
In data set [5] the test system is Mus musculus. Kind of data set: Analgesic activity in Swiss albino mouse assessed as reduction in formalin-induced paw licking by measuring time spent on licking during phase-2 at 10 mg/kg, po dosed 1 hr before formalin challenge and measured 30 mins after formalin injection. The class given is functional.
For data set [6], the system named is Rattus norvegicus. The data set can be described thus: Anti-inflammatory activity in rat model of acute inflammation assessed as inhibition of carrageenan-induced paw oedema dosed at equimolar oral dose relative to 10 mg/kg, po indomethacin dosed 1 hr before carrageenan injection and measured 2 hrs after carrageenan injection. The class given is functional.
Data set [7] concerns Rattus norvegicus. The data set can be described thus: Anti-inflammatory activity in rat model of acute inflammation assessed as inhibition of carrageenan-induced paw oedema dosed at equimolar oral dose relative to 10 mg/kg, po indomethacin dosed 1 hr before carrageenan injection and measured 3 hrs after carrageenan injection. The class given is functional.
For data set [8], the system named is Rattus norvegicus. Kind of data set: Anti-inflammatory activity in rat model of acute inflammation assessed as inhibition of carrageenan-induced paw oedema dosed at equimolar oral dose relative to 10 mg/kg, po indomethacin dosed 1 hr before carrageenan injection and measured 4 hrs after carrageenan injection. It is filed as functional.
Data set [9] concerns Rattus norvegicus. Kind of data set: Anti-inflammatory activity in rat model of acute inflammation assessed as inhibition of carrageenan-induced paw oedema dosed at equimolar oral dose relative to 10 mg/kg, po indomethacin dosed 1 hr before carrageenan injection and measured 5 hrs after carrageenan injection. It is filed as functional.
Data set [10] concerns Rattus norvegicus. The data set can be described thus: Anti-inflammatory activity in rat model of acute inflammation assessed as inhibition of carrageenan-induced paw oedema dosed at equimolar oral dose relative to 10 mg/kg, po indomethacin dosed 1 hr before carrageenan injection and measured 6 hrs after carrageenan injection. It is filed as functional.
In data set [11] the test system is Rattus norvegicus. Kind of data set: Anti-inflammatory activity in rat model of acute inflammation assessed as inhibition of carrageenan-induced paw oedema dosed at equimolar oral dose relative to 10 mg/kg, po indomethacin dosed 1 hr before carrageenan injection and measured 5 hrs after carrageenan injection relative to 10 mg/kg, po indomethacin. It is filed as functional.

The test system of data set [12] is Rattus norvegicus. Kind of data set: Toxicity in healthy albino rat assessed as induction of changes in autonomic or behavioural responses up to 500 mg/kg, po. It is filed as organism-based. Particulars: in vivo.
The subject of data set [13] is Rattus norvegicus. The data set can be described thus: Toxicity in healthy albino rat assessed as induction of tremors up to 500 mg/kg, po. The class given is organism-based. Particulars: in vivo.
The subject of data set [14] is Rattus norvegicus. The data set can be described thus: Toxicity in healthy albino rat assessed as induction of convulsion up to 500 mg/kg, po. It is filed as organism-based. Particulars: in vivo.
The test system of data set [15] is Rattus norvegicus. The data set can be described thus: Toxicity in healthy albino rat assessed as induction of salivation up to 500 mg/kg, po. It is filed as organism-based. Conditions: in vivo.
Data set [16] deals with Rattus norvegicus. The data set can be described thus: Toxicity in healthy albino rat assessed as induction of diarrhoea up to 500 mg/kg, po. It is filed as organism-based. Particulars: in vivo.
Data set [17] relates to Rattus norvegicus. The data set can be described thus: Toxicity in healthy albino rat assessed as induction of lethargy up to 500 mg/kg, po. The class given is organism-based. Conditions: in vivo.
Data set [18] has as its system Rattus norvegicus. The data set can be described thus: Toxicity in healthy albino rat assessed as induction of sleep up to 500 mg/kg, po. The class given is organism-based. Conditions: in vivo.
Data set [19] has as its system Rattus norvegicus. Kind of data set: Toxicity in healthy albino rat assessed as induction of coma up to 500 mg/kg, po. It is filed as organism-based. Particulars: in vivo.
The test system of data set [20] is Rattus norvegicus. Kind of data set: Toxicity in healthy albino rat assessed as induction of mortality at 500 mg/kg, po measured after 14 days. The class given is organism-based. Particulars: in vivo, 336 h.
Data set [21] deals with Rattus norvegicus. The data set can be described thus: Anti-inflammatory activity in rat model of acute inflammation assessed as inhibition of carrageenan-induced paw oedema dosed at equimolar oral dose relative to 10 mg/kg, po indomethacin dosed 1 hr before carrageenan injection and measured 1 hr after carrageenan injection. It is filed as functional.
Data set [22] relates to Rattus norvegicus. The data set can be described thus: Anti-inflammatory activity in rat assessed as inhibition of arachidonic acid-induced paw edema at 10 mg/kg, po dosed 30 mins before arachidonic acid injection and measured 1 hr after arachidonic acid injection. It is filed as functional.

`O=c1nc(-c2ccccc2)c(-c2ccccc2)nn1Cc1nnc(-c2ccncc2)o1`: in data set [1], the Rf was determined as 0.43. Besides, in [2], the logP was found to be 3.67. Moreover, the inhibition in data set [3] was determined as 47.9%.
With `CC(C)=CCN1CC[C@]2(C)c3cc(O)ccc3C[C@H]1[C@H]2C` [(+)-PENTAZOCINE], the inhibition in vivo at 10 mg/kg in the data set with Mus musculus [4] was 88.9%; in the data set on Mus musculus [5], 90.2%.
With `O=c1nc(-c2ccccc2)c(-c2ccccc2)nn1Cc1nnc(-c2ccc(Cl)cc2Cl)o1`, the “inhibition (INH)” value in the data set on Rattus norvegicus [6] came out at 28.44%; in the data set with Rattus norvegicus [7], 31.23%; in the data set on Rattus norvegicus [8] it was 34.8%; in the data set with Rattus norvegicus [9] it was 38.31%; with Rattus norvegicus [10], 35.42%; in the data set with Rattus norvegicus [11], 61.16%. The “inhibition (INH)” value in the data set on Rattus norvegicus [21] worked out at 12.01%. The compound further showed a Rf in [1] of 0.51. This compound also showed a logP in data set [2] of 4.45. In addition, the inhibition in data set [3] is 67.7%. The Activity entry in the data set with Rattus norvegicus [12], in the data set with Rattus norvegicus [13], in the data set with Rattus norvegicus [14], in the data set with Rattus norvegicus [15], in the data set on Rattus norvegicus [16] and in the data set with Rattus norvegicus [17] was “Non-toxic” each time. Further, the Activity result in the data set with Rattus norvegicus [18], in the data set with Rattus norvegicus [19] and in the data set on Rattus norvegicus [20] was “Non-toxic” each time.
Consider `CC(c1cc2ccccc2s1)N(O)C(N)=O` (centres undefined) [ZILEUTON], for which the inhibition in vivo at 10 mg/kg with Rattus norvegicus [22] stood at 67.4%.
As to `O=c1nc(-c2ccccc2)c(-c2ccccc2)nn1Cc1nnc(-c2ccccc2)o1`, the Rf in data set [1] came to 0.4. For the same compound, the logP in data set [2] worked out at 3.54. Also, the inhibition in data set [3] was 50.3%.
For the compound `Cc1ccc(-c2nnc(Cn3nc(-c4ccccc4)c(-c4ccccc4)nc3=O)o2)cc1`, the Rf in data set [1] amounted to 0.34. This compound showed a logP in [2] of 3.73. In data set [3], the inhibition stood at 50.3%.
For the compound `CCOC(=O)Cn1nc(-c2ccccc2)c(-c2ccccc2)nc1=O`, the inhibition in data set [3] came to 35.7%.
The compound `COc1cccc(-c2nnc(Cn3nc(-c4ccccc4)c(-c4ccccc4)nc3=O)o2)c1` showed a Rf in data set [1] of 0.38. In data set [2], this compound had a lipophilicity (logP) of 3.47. Moreover, in [3], the inhibition worked out at 62.7%.
In data set [1], `N#Cc1cccc(-c2nnc(Cn3nc(-c4ccccc4)c(-c4ccccc4)nc3=O)o2)c1` gave a Rf of 0.45. Moreover, in [2], the logP came to 3.74. Also, the inhibition in data set [3] came out at 62.3%.
For the compound `O=c1nc(-c2ccccc2)c(-c2ccccc2)nn1Cc1nnc(-c2ccccc2[N+](=O)[O-])o1`, the “inhibition (INH)” value in the data set with Rattus norvegicus [6] turned out to be 30.7%; in the data set with Rattus norvegicus [7] it was 36.39%; in the data set on Rattus norvegicus [8], 38.75%; in the data set on Rattus norvegicus [9], 41.29%; in the data set with Rattus norvegicus [10] it was 39%; in the data set with Rattus norvegicus [11], 65.92%. Further, the “inhibition (INH)” value in the data set with Rattus norvegicus [21] turned out to be 12.12%. For the same compound, the Rf in [1] is 0.35. The compound further displayed a logP in data set [2] of 3.64. Moreover, in data set [3], the inhibition was found to be 70.1%. In addition, the Activity result in the data set with Rattus norvegicus [12], with Rattus norvegicus [13], in the data set on Rattus norvegicus [14], in the data set with Rattus norvegicus [15], in the data set with Rattus norvegicus [16] and in the data set with Rattus norvegicus [17] was “Non-toxic” each time. In addition, the Activity result in the data set on Rattus norvegicus [18], in the data set with Rattus norvegicus [19] and in the data set with Rattus norvegicus [20] was “Non-toxic” each time.
Consider `O=c1nc(-c2ccccc2)c(-c2ccccc2)nn1Cc1nnc(Oc2ccc(Cl)cc2Cl)o1`, for which the “inhibition (INH)” value in the data set on Rattus norvegicus [6] came out at 34.87%; in the data set on Rattus norvegicus [7], 42.02%; in the data set with Rattus norvegicus [8], 45.24%; in the data set with Rattus norvegicus [9] it was 47.14%; in the data set with Rattus norvegicus [10], 44.89%; with Rattus norvegicus [11] it was 75.25%. Also, the “inhibition (INH)” value in the data set on Rattus norvegicus [21] is 15.59%. Also, the Rf in data set [1] was found to be 0.47. This compound also showed a logP in [2] of 4.4. Moreover, the inhibition in [3] is 72.7%. Further, the Activity result in the data set on Rattus norvegicus [12], in the data set on Rattus norvegicus [13], in the data set with Rattus norvegicus [14], in the data set on Rattus norvegicus [15], in the data set with Rattus norvegicus [16] and with Rattus norvegicus [17] was “Non-toxic” in each case. In addition, the Activity entry in the data set on Rattus norvegicus [18], in the data set with Rattus norvegicus [19] and in the data set with Rattus norvegicus [20] was “Non-toxic” throughout.
As for `Oc1nnc(-c2ccccc2)c(-c2ccccc2)n1`, in data set [3], the inhibition was determined as 30.7%.
In data set [1], `Cc1ccccc1-c1nnc(Cn2nc(-c3ccccc3)c(-c3ccccc3)nc2=O)o1` returned a Rf of 0.36. The compound also showed a log partition coefficient (logP) in [2] of 3.81. The inhibition in [3] came to 53.7%.
Turning to `NNC(=O)Cn1nc(-c2ccccc2)c(-c2ccccc2)nc1=O`, the inhibition in [3] was found to be 38.3%.
In data set [1], `O=c1nc(-c2ccccc2)c(-c2ccccc2)nn1Cc1nnc(-c2cccc(Cl)c2)o1` had a Rf of 0.45. This compound also displayed a logP in data set [2] of 3.82. Further, in data set [3], the inhibition amounted to 64.4%.

The values above are taken from ChEMBL document CHEMBL3608207, “Synthesis, characterization, evaluation and molecular dynamics studies of 5, 6-diphenyl-1,2,4-triazin-3(2H)-one derivatives bearing 5-substituted 1,3,4-oxadiazole as potential anti-inflammatory and analgesic agents” (Eur J Med Chem, 2015).
